Experimental data published in patent US4327088A, “Phosphonooxy- or glycosyloxy-substituted acrylophenones, compositions and uses thereof” (priority 1979, dated 1982).
Values after ≈ are worked out from the molar mass of the structure shown. Where two headings read alike, the source gives them in different places.

Key:
rhinovirus HGP = experiment: Inhibition of viral cytopathogenic effect (rhinovirus HGP in HeLa cells); type: cell-based; conditions: Enterovirus, 48 h, read-out: Minimal Inhibitory Concentration against rhinovirus HGP
Description: Inhibition of viral cytopathogenic effect
A suspension of HeLa cells (6×10^4) was mixed with rhinovirus HGP (3×10^3 PFU) (plaque forming units) and was plated in a microtest plate where serially diluted compounds to be tested were contained. The cells were then cultured with Eagle's minimum essential medium containing 2% calf serum, 1% tryptose phosphate broth, 100 μg/ml of streptomycin sulfate and 20 unit/ml of penicillin G. Viral c.p.e. (cytopathogenic effect) was observed by a microscope after 2 days culture at 33° C
The antiviral activity of the tested compounds is expressed by the minimal inhibitory concentration at which dose viral c.p.e. is inhibited by 50% as compared to the control culture.

Acute toxicity in mice = experiment: Acute toxicity in mice; parameters: species or system ddy mice; conditions: mouse, in vivo, day 21
Coxsackie virus B1 = experiment: Antiviral activity against lethal infection of Coxsackie virus B1 in mice; type: in vivo, ddy mice; conditions: up to 21 days
Description: The antiviral activities of compounds of the invention were tested against lethal infection of Coxsackie virus B1 in mice. ddy Mice weighing about 15 g were infected intraperitoneally (i.p.) by about LD50 of the virus. The infected mice were then administered 4 times with the compounds either by oral (p.o.) or intravenous (i.v.) route at -2, 7, 22 and 31 hrs. after infection. The survivals were recorded up to 21 days.

[1] = ip, i.p. single dose, ddy mice 15 ~ 20 g, dissolved in dimethylsulfoxide, read-out: LD50, i.p. route
[2] = po, ddy mice, suspended in 0.5% carboxymethyl cellulose, read-out: LD50, p.o. route

Row | SMILES | IC50 (rhinovirus HGP) | soluble in water (Solubility in water) | LD50 at 504 h (Acute toxicity in mice; [1]) | LD50 at 504 h (Acute toxicity in mice; [2]) | % Survival (Coxsackie virus B1; 5 mg/kg × 4 i.v.) | % Survival (Coxsackie virus B1; 10 mg/kg × 4 i.v.) | % Survival (Coxsackie virus B1; 20 mg/kg × 4 p.o.) | % Survival (Coxsackie virus B1; 40 mg/kg × 4 p.o.) | % Survival (Coxsackie virus B1; 80 mg/kg × 4 p.o.)
1 | COc1cc(OC)c(C(=O)/C=C/c2ccc3c(c2)OCO3)c(OP(=O)(O)O)c1 [2',4'-dimethoxy-3,4-(methylenedioxy)-6'-(phosphonooxy)chalcone] | 0.06 µg/mL (≈ 0.147 µM) | soluble in water | > 500 mg/kg | > 1000 mg/kg | – | – | – | – | –
2 | COc1cc(OC)c(C(=O)/C=C/c2ccc(C)o2)c(OP(=O)(O)O)c1 [2',4'-dimethoxy-3-(5-methyl-2-furyl)-6'-(phosphonooxy)acrylophenone] | 0.04 to 0.1 µg/mL (≈ 0.109 to 0.272 µM) | soluble in water | > 500 mg/kg | > 1200 mg/kg | – | – | – | – | –
3 | COc1cc(OC)c(C(=O)/C=C/c2ccc(SC)cc2)c(OP(=O)(O)O)c1 [2',4'-dimethoxy-4-(methylthio)-6'-(phosphonooxy)chalcone] | 0.02 µg/mL (≈ 0.0487 µM) | soluble in water | > 500 mg/kg | > 1000 mg/kg | – | – | – | – | –
4 | COc1cc(OC)c(C(=O)/C=C/c2ccc(C)cc2)c(OP(=O)(O)O)c1 [2',4'-dimethoxy-4-methyl-6'-(phosphonooxy)chalcone] | 0.02 µg/mL (≈ 0.0529 µM) | soluble in water | > 500 mg/kg | > 2000 mg/kg | – | – | – | – | –
5 | COc1cc(OC)c(C(=O)/C=C/c2cccs2)c(OP(=O)(O)O)c1 [2',4'-dimethoxy-6'-(phosphonooxy)-3-(2-thienyl)acrylophenone] | 0.04 to 0.1 µg/mL (≈ 0.108 to 0.27 µM) | soluble in water | > 500 mg/kg | > 1000 mg/kg | – | – | – | – | –
6 | COc1ccc(/C=C/C(=O)c2c(OC)cc(OC)cc2OC(=O)c2ccc(OC)cc2)cc1 [2',4,4'-trimethoxy-6'-(4-methoxybenzoyloxy)chalcone] | 0.03 to 0.1 µg/mL (≈ 0.0669 to 0.223 µM) | – | > 500 mg/kg | > 1000 mg/kg | – | – | – | – | –
7 | COc1ccc(/C=C/C(=O)c2c(OC)cc(OC)cc2OP(=O)(O)O)cc1 [2',4,4'-trimethoxy-6'-(phosphonooxy)chalcone] | 0.03 to 0.1 µg/mL (≈ 0.0761 to 0.254 µM) | soluble in water | > 500 mg/kg | > 1000 mg/kg | 20% | 60% | 10% | 50% | 70%
8 | CC[N+](CC)(CC)CC(=O)Oc1cc(OC)cc(OC)c1C(=O)/C=C/c1ccc(OC)cc1.[Cl-] [2',4,4'-trimethoxy-6'-(triethylammonioacetoxy) chalcone chloride] | 0.01 µg/mL | soluble in water | 180 mg/kg | > 1000 mg/kg | – | – | – | – | –
9 | COc1ccc(/C=C/C(=O)c2c(OC)cc(OC)cc2OC(=O)c2ccc(OC)cc2OC)cc1 [2'-(2,4-dimethoxybenzoyloxy)-4,4',6'-trimethoxychalcone] | 0.03 to 0.1 µg/mL (≈ 0.0627 to 0.209 µM) | – | > 500 mg/kg | > 1000 mg/kg | – | – | – | – | –
10 | COc1ccc(/C=C/C(=O)c2c(OC)cc(OC)cc2O[C@@H]2O[C@H](COC(C)=O)[C@@H](OC(C)=O)[C@H](OC(C)=O)[C@H]2NC(C)=O)cc1 [2'-(2-acetamido-2-deoxy-3,4,6-tri-O-acetyl-β-D-glucopyranosyloxy)-4,4',6'-trimethoxychalcone] | 0.1 to 0.3 µg/mL (≈ 0.155 to 0.466 µM) | – | > 500 mg/kg | > 2000 mg/kg | – | – | – | – | –
11 | COc1ccc(/C=C/C(=O)c2c(OC)cc(OC)cc2O[C@@H]2O[C@H](CO)[C@@H](O)[C@H](O)[C@H]2NC(C)=O)cc1 [2'-(2-acetamido-2-deoxy-β-D-glucopyranosyloxy)-4,4',6'-trimethoxychalcone] | 3 to 10 µg/mL (≈ 5.8 to 19.3 µM) | soluble in water | > 300 mg/kg | > 2000 mg/kg | – | – | – | – | –
12 | COc1ccc(/C=C/C(=O)c2c(OC)cc(OC)cc2OC(=O)c2ccccc2)cc1 [2'-(benzoyloxy)-4,4',6'-trimethoxychalcone] | 0.03 to 0.1 µg/mL (≈ 0.0717 to 0.239 µM) | – | > 500 mg/kg | > 1000 mg/kg | – | – | – | – | –
13 | COc1ccc(/C=C/C(=O)c2c(OC)cc(OC)cc2OC(=O)OCc2ccccc2)cc1 [2'-(benzyloxycarbonyloxy)-4,4',6'-trimethoxychalcone] | 0.01 to 0.03 µg/mL (≈ 0.0223 to 0.0669 µM) | – | > 500 mg/kg | > 1000 mg/kg | – | – | – | – | –
14 | COc1ccc(/C=C/C(=O)c2c(OC)cc(OC)cc2OC(=O)c2ccco2)cc1 [2'-(furoyloxy)-4,4',6'-trimethoxychalcone] | 0.03 µg/mL (≈ 0.0735 µM) | – | > 500 mg/kg | > 1000 mg/kg | – | – | – | – | –
15 | CCOc1cc(OC)cc(OP(=O)(O)O)c1C(=O)/C=C/c1ccc(OC)cc1 [2'-ethoxy-4,4'-dimethoxy-6'-(phosphonooxy)chalcone] | 0.02 µg/mL (≈ 0.049 µM) | soluble in water | > 500 mg/kg | > 1000 mg/kg | – | – | – | 30% | –
16 | COCOc1ccc(/C=C/C(=O)c2c(O)cc(OC)cc2OC)cc1 [2'-hydroxy-4',6'-dimethoxy-4-(methoxymethoxy)chalcone] | 0.03 to 0.1 µg/mL (≈ 0.0871 to 0.29 µM) | – | > 500 mg/kg | > 1000 mg/kg | – | – | – | – | –
17 | COc1cc(O)c(C(=O)/C=C/c2ccc3[nH]cnc3c2)c(OC)c1 [3-(5-benzimidazolyl)-2'-hydroxy-4',6'-dimethoxyacrylophenone] | 0.1 to 0.3 µg/mL (≈ 0.308 to 0.925 µM) | – | > 100 mg/kg | > 1000 mg/kg | – | – | – | – | –
18 | CCOc1cc(OC)c(C(=O)/C=C/c2ccc(OC)cc2)c(OP(=O)(O)O)c1 [4'-ethoxy-2',4-dimethoxy-6'-(phosphonooxy)chalcone] | 0.03 µg/mL (≈ 0.0735 µM) | soluble in water | > 500 mg/kg | > 2000 mg/kg | – | – | – | – | –
19 | COc1cc(O)c(C(=O)/C=C/c2ccc(OC(C)=O)cc2)c(OC)c1 [4-acetoxy-2'-hydroxy-4',6'-dimethoxychalcone] | 0.3 µg/mL (≈ 0.876 µM) | – | > 500 mg/kg | > 1000 mg/kg | – | – | – | – | –
20 | CCOc1ccc(/C=C/C(=O)c2c(OC)cc(OC)cc2OP(=O)(O)O)cc1 [4-ethoxy-2',4'-dimethoxy-6'-(phosphonooxy)chalcone] | 0.006 to 0.02 µg/mL (≈ 0.0147 to 0.049 µM) | soluble in water | > 500 mg/kg | > 1000 mg/kg | – | – | – | – | –
